# From article PMC3517986 (Biochemical Journal, 2012)
# “Also recorded” adds a separate entry of the source.
# Legend:
# [1] = target: T1, WDR5 (Homo sapiens, UniProt P61964); assay: ITC; type: binding
# [2] = target: T1, WDR5; type: binding; conditions: fluorescence polarization, 40 nM FITC-WIN peptide, 5 μM WDR5, triplicate
# [3] = target: MLL–WDR5–RbBP5 core complex (trimeric complex) (Homo sapiens, UniProt P61964); assay: Methyltransferase activity of trimeric MLL complex; type: biochemical
# [4] = tested on: PRMT5_MEP50 complex; assay: HMT selectivity panel: PRMT5; type: biochemical, human; conditions: concentrations up to 100 μM
# [5] = tested on: SETD8; assay: HMT selectivity panel: SETD8; type: biochemical, human; conditions: concentrations up to 100 μM
# [6] = tested on: SETD7; assay: HMT selectivity panel: SETD7; type: biochemical, human; conditions: concentrations up to 100 μM
# [7] = tested on: G9a; assay: HMT selectivity panel: G9a; type: biochemical, human; conditions: concentrations up to 100 μM
# [8] = tested on: EHMT1; assay: HMT selectivity panel: EHMT1; type: biochemical, human; conditions: concentrations up to 100 μM
# [9] = tested on: SUV39H2; assay: HMT selectivity panel: SUV39H2; type: biochemical, human; conditions: concentrations up to 100 μM
# [10] = tested on: PRMT3; assay: HMT selectivity panel: PRMT3; type: biochemical, human; conditions: concentrations up to 100 μM
# [11] = target: MLL–WDR5–RbBP5–ASH2L complex (Homo sapiens, UniProt P61964); assay: Methyltransferase activity of tetrameric MLL complex; type: biochemical; conditions: tetrameric MLL complex at 10, 50 and 125 nM; not calculated owing to incomplete fitting
SMILES,Kd [1],Kdis (Kdisplacement) [2],"IC50 ([3]; IC50, 125 nM (0.125 μM) trimeric MLL complex)","IC50 ([3]; IC50, 500 nM trimeric MLL complex)","IC50 ([3]; IC50, 1000 nM trimeric MLL complex)",inhibitory effect [4],inhibitory effect [5],inhibitory effect [6],inhibitory effect [7],inhibitory effect [8],inhibitory effect [9],inhibitory effect [10],IC50 relative to trimeric complex [11]
"CN1CCN(c2ccc([N+](=O)[O-])cc2NC(=O)c2ccccc2)CC1 [WDR5-0101, N-(2-(4-methylpiperazin-1-yl)-5 nitrophenyl)benzamide]",5.5 ± 0.6 µM,12 ± 1 µM,–,–,–,–,–,–,–,–,–,–,–
"COC(=O)c1ccc(N2CCN(C)CC2)c(NC(=O)c2cccc(OC)c2)c1 [WDR5-0103, methyl-3-(3-methoxybenzamido)-4-(4-methylpiperazin-1-yl)benzoate]",0.45 ± 0.02 µM,3.0 ± 0.1 µM,39 ± 10 µM,83 ± 10 µM,280 ± 12 µM,no inhibitory effect,no inhibitory effect,no inhibitory effect; also recorded: did not affect methyltransferase activity,no inhibitory effect,no inhibitory effect,no inhibitory effect,no inhibitory effect,significantly higher
